20 compounds from US12421191B2, “3-hydroxyoxindole derivatives as CRHR2 antagonist” (RaQualia Pharma Inc., priority 2020, dated 2025) can be followed below.

As usually defined, the IC50 is the concentration that inhibits the measured activity by half.

This test concerns the target T1, human CRHR2-alpha (Homo sapiens, UniProt Q13324).
T1 construct: host or cells: CHO-K1
T1 sequence (Q13324 1-411): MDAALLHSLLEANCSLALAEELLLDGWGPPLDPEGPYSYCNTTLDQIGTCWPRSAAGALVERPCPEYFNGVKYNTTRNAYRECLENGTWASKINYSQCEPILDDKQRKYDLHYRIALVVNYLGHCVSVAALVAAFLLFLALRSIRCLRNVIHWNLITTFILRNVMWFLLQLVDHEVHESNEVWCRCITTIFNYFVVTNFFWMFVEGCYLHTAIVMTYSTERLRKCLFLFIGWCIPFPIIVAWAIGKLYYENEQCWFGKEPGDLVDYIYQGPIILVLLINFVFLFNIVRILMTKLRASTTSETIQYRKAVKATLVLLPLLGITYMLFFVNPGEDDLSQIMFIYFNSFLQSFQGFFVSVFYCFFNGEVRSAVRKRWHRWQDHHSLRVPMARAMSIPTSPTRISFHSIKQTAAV
Kind of test: cAMP functional assay for human CRHR2 (LANCE Ultra TR-FRET). Format: cell-based. The settings on record: inhibition of cAMP production in CHO-K1 cells stably expressing human CRHR2-alpha, EC90 of human urocortin2 as agonist; read-out: IC50 against CRHR2. As for the experimental part: cAMP functional assay for human CRHR2 The ability of the compounds of this invention to inhibit either CRHR2 is assessed by 3′,5′-cyclic adenosine monophosphate (cAMP) production in cells using the LANCE Ultra cAMP assay kit (ParkinElmer), which are designed based on the homogeneous time-resolved fluorescence resonance energy transfer (TR-FRET) immunoassay.
CHO-K1 (Chinese hamster ovary) cells stably expressing human CRHR2-alpha (DiscoveRX, Cat. 95-0048C2) are grown in HAM's F12 media supplemented with 10% fetal bovine serum (FBS), 100 units/mL penicillin G, 100 microg/mL hygromycin and 0.5 microg/mL geneticin at 37° C. in 5% CO2 humidified incubator to 80% confluence. After 7 hours starvation treatment in culture media containing 0.1% FBS, the cells are washed with Hanks balanced salt solution (HBSS) and cryopreserved.
For cAMP assay, frozen cells are thawed and washed with HBSS, followed by resuspending cells in assay buffer (HBSS containing 0.1% bovine serum albumin, 0.5 mM isobutylmethylxanthine and 5 mM Hepes, pH 7.4) at the appropriate concentration for the assay. The cell suspensions are plated on 384-well microplates (Greiner Bio-One) at a density of 4,000 cells per well. After preincubating the cells with various concentrations of the compounds for 30 min at 25° C., an assay buffer containing EC90 concentration of agonist is added and the cells are incubated for 30 min at 25° C. Human urocortin2 (Peptide Institute) is used as agonists for CRHR2. For the termination of assay, europium-labeled cAMP tracer and ULight (registered trademark) dye labeled cAMP antibodies, both prepared with Lance-Ultra cAMP detection reagent (PerkinElmer) are added in the plate and incubate for 60 min at 25° C. After incubation, TR-FRET signal is detected by EnVision plate reader (PerkinElmer). The IC50 values for compounds are calculated from dose-response curves by fitting the percent inhibition using XLfit (ID Business Solutions).
On the technique in general: TR-FRET usually uses a lanthanide donor and a delayed reading to cut background.

For `O=C(N[C@H]1CC[C@H](CN2C(=O)C(O)(c3cccc(F)c3F)c3ccccc32)CC1)c1cc(Cl)cnc1C(F)F` (some centres unmarked) [Example 40, 5-chloro-2-(difluoromethyl)-N-((1r,4r)-4-((3-(2,3-difluorophenyl)-3-hydroxy-2-oxoindolin-1-yl)methyl)cyclohexyl) nicotinamide], the IC50 is under 200 nM.
Consider `COc1cccc(C2(O)C(=O)N(C[C@H]3CC[C@H](NC(=O)c4cc(Cl)cnc4C(F)F)CC3)c3ccccc32)c1` (some centres unmarked) [Example 47, 5-chloro-2-(difluoromethyl)-N-((1r,4r)-4-((3-hydroxy-3-(3-methoxyphenyl)-2-oxoindolin-1-yl)methyl)cyclohexyl) nicotinamide], for which the IC50 was under 200 nM.
In the case of `O=C(N[C@H]1CC[C@H](CN2C(=O)C(O)(c3cccc(Cl)c3)c3ccccc32)CC1)c1cc(Cl)cnc1C(F)F` (some centres unmarked) [Example 48, 5-chloro-N-((1r,4r)-4-((3-(3-chlorophenyl)-3-hydroxy-2-oxoindolin-1-yl)methyl)cyclohexyl)-2-(difluoromethyl)nicotinamide] it was under 200 nM; in that of `Cc1cccc(C2(O)C(=O)N(C[C@H]3CC[C@H](NC(=O)c4cc(Cl)cnc4C(F)F)CC3)c3ccccc32)c1` (some centres unmarked) [Example 49, 5-chloro-2-(difluoromethyl)-N-((1r,4r)-4-((3-hydroxy-2-oxo-3-(m-tolyl)indolin-1-yl)methyl)cyclohexyl) nicotinamide], under 200 nM.
`O=C(N[C@H]1CC[C@H](CN2C(=O)C(O)(c3ccc(F)cc3F)c3ccccc32)CC1)c1cc(Cl)cnc1C(F)F` (some centres unmarked) [Example 53, 5-chloro-2-(difluoromethyl)-N-((1r,4r)-4-((3-(2,4-difluorophenyl)-3-hydroxy-2-oxoindolin-1-yl)methyl)cyclohexyl) nicotinamide]: the IC50 was under 200 nM.
In the case of `COc1ccc(C2(O)C(=O)N(C[C@H]3CC[C@H](NC(=O)c4cc(Cl)cnc4C(F)F)CC3)c3ccccc32)c(F)c1` (some centres unmarked) [Example 54, 5-chloro-2-(difluoromethyl)-N-((1r,4r)-4-((3-(2-fluoro-4-methoxyphenyl)-3-hydroxy-2-oxoindolin-1-yl)methyl)cyclohexyl) nicotinamide], the IC50 was under 200 nM.
On to `Cc1ccc(C2(O)C(=O)N(C[C@H]3CC[C@H](NC(=O)c4cc(Cl)cnc4C(F)F)CC3)c3ccccc32)cc1` (some centres unmarked) [Example 56, 5-chloro-2-(difluoromethyl)-N-((1r,4r)-4-((3-hydroxy-2-oxo-3-(p-tolyl)indolin-1-yl)methyl)cyclohexyl) nicotinamide], for which the IC50 is under 200 nM.
In the case of `O=C(N[C@H]1CC[C@H](CN2C(=O)C(O)(c3cc(F)ccc3F)c3ccccc32)CC1)c1cc(Cl)cnc1C(F)F` (some centres unmarked) [Example 58, 5-chloro-2-(difluoromethyl)-N-((1r,4r)-4-((3-(2,5-difluorophenyl)-3-hydroxy-2-oxoindolin-1-yl)methyl)cyclohexyl) nicotinamide] it was under 200 nM; in that of `N#Cc1ccc(F)c(C2(O)C(=O)N(C[C@H]3CC[C@H](NC(=O)c4cc(Cl)cnc4C(F)F)CC3)c3ccccc32)c1` (some centres unmarked) [Example 59, 5-chloro-N-((1r,4r)-4-((3-(5-cyano-2-fluorophenyl)-3-hydroxy-2-oxoindolin-1-yl)methyl)cyclohexyl)-2-(difluoromethyl)nicotinamide], under 200 nM; in that of `Cc1cccc(C2(O)C(=O)N(C[C@H]3CC[C@H](NC(=O)c4cc(Cl)cnc4C(F)F)CC3)c3ccccc32)c1F` (some centres unmarked) [Example 63, 5-chloro-2-(difluoromethyl)-N-((1r,4r)-4-((3-(2-fluoro-3-methylphenyl)-3-hydroxy-2-oxoindolin-1-yl)methyl)cyclohexyl) nicotinamide], under 200 nM.
In the case of `COc1cccc(C2(O)C(=O)N(C[C@H]3CC[C@H](NC(=O)c4cc(Cl)cnc4C(F)F)CC3)c3ccccc32)c1F` (some centres unmarked) [Example 66, 5-chloro-2-(difluoromethyl)-N-((1r,4r)-4-((3-(2-fluoro-3-methoxyphenyl)-3-hydroxy-2-oxoindolin-1-yl)methyl)cyclohexyl) nicotinamide], the IC50 was under 200 nM.
For `O=C(N[C@H]1CC[C@H](CN2C(=O)C(O)(c3cccc(Cl)c3F)c3ccccc32)CC1)c1cc(Cl)cnc1C(F)F` (some centres unmarked) [Example 67, 5-chloro-N-((1r,4r)-4-((3-(3-chloro-2-fluorophenyl)-3-hydroxy-2-oxoindolin-1-yl)methyl)cyclohexyl)-2-(difluoromethyl)nicotinamide], the IC50 is under 200 nM.
Take `COc1ccc(F)c(C2(O)C(=O)N(C[C@H]3CC[C@H](NC(=O)c4cc(Cl)cnc4C(F)F)CC3)c3ccccc32)c1` (some centres unmarked) [Example 74, 5-chloro-2-(difluoromethyl)-N-((1r,4r)-4-((3-(2-fluoro-5-methoxyphenyl)-3-hydroxy-2-oxoindolin-1-yl)methyl)cyclohexyl) nicotinamide]: the IC50 is under 200 nM.
In the case of `O=C(N[C@H]1CC[C@H](CN2C(=O)C(O)(c3ccc(F)cn3)c3ccc(F)cc32)CC1)c1cc(Cl)cnc1C(F)F` (some centres unmarked) [Example 79, 5-chloro-2-(difluoromethyl)-N-((1r,4r)-4-((6-fluoro-3-(5-fluoropyridin-2-yl)-3-hydroxy-2-oxoindolin-1-yl)methyl)cyclohexyl) nicotinamide], the IC50 is under 200 nM.
In the case of `O=C(N[C@H]1CC[C@H](CN2C(=O)C(O)(c3ccccc3F)c3ccc(F)cc32)CC1)c1cc(Cl)cnc1C(F)F` (some centres unmarked) [Example 83, 5-chloro-2-(difluoromethyl)-N-((1r,4r)-4-((6-fluoro-3-(2-fluorophenyl)-3-hydroxy-2-oxoindolin-1-yl)methyl)cyclohexyl) nicotinamide] it was under 200 nM; in that of `O=C(N[C@H]1CC[C@H](CN2C(=O)C(O)(c3ccncc3F)c3ccc(F)cc32)CC1)c1cc(Cl)cnc1C(F)F` (some centres unmarked) [Example 85, 5-chloro-2-(difluoromethyl)-N-((1r,4r)-4-((6-fluoro-3-(3-fluoropyridin-4-yl)-3-hydroxy-2-oxoindolin-1-yl)methyl)cyclohexyl) nicotinamide], under 200 nM.
In the case of `O=C(N[C@H]1CC[C@H](CN2C(=O)C(O)(c3ccsc3)c3ccccc32)CC1)c1cc(Cl)cnc1C(F)F` (some centres unmarked) [Example 92, 5-chloro-2-(difluoromethyl)-N-((1r,4r)-4-((3-hydroxy-2-oxo-3-(thiophen-3-yl)indolin-1-yl)methyl)cyclohexyl) nicotinamide] it was under 200 nM.
With `O=C(N[C@H]1CC[C@H](CN2C(=O)C(O)(c3ccccc3F)c3cc(F)ccc32)CC1)c1cc(Cl)cnc1C(F)F` (some centres unmarked) [Example 93, 5-chloro-2-(difluoromethyl)-N-((1r,4r)-4-((5-fluoro-3-(2-fluorophenyl)-3-hydroxy-2-oxoindolin-1-yl)methyl)cyclohexyl) nicotinamide], the IC50 is under 200 nM.
On to `O=C(N[C@H]1CC[C@H](CN2C(=O)C(O)(c3ccccc3F)c3cccnc32)CC1)c1cc(Cl)cnc1C(F)F` (some centres unmarked) [Example 94, 5-chloro-2-(difluoromethyl)-N-((1r,4r)-4-((3-(2-fluorophenyl)-3-hydroxy-2-oxo-2,3-dihydro-1H-pyrrolo[2,3-b]pyridin-1-yl)methyl)cyclohexyl) nicotinamide], for which the IC50 was under 200 nM.
In the case of `O=C(N[C@H]1CC[C@H](CN2C(=O)C(O)(c3sccc3F)c3ccccc32)CC1)c1cc(Cl)cnc1C(F)F` (some centres unmarked) [Example 95, 5-chloro-2-(difluoromethyl)-N-((1r,4r)-4-((3-(3-fluorothiophen-2-yl)-3-hydroxy-2-oxoindolin-1-yl)methyl)cyclohexyl) nicotinamide] it was under 200 nM.
